Results reported in PubChem BioAssay AID1963961 (Molecular Pharmacology Branch, DTP, NCI, 2024).
Values joined by “and” are separate entries in the source; they are usually repeats but may differ in a detail not shown here. Identical values can stand only once. Each block holds one compound with its values, some of them ahead of it.

System: K98450-129-R-PDC multicell spheroids, viability
Test: Anticancer human tumor K98450-129-R-PDC patient-derived colon adenocarcinoma cell line growth inhibition [PI3K]
Settings: for viability, T/C: stronger effect = lower value; for IC50: curve of first compound
Method in brief: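 Stroma-containing spheroids: tumor line, pooled-donor HUVEC, hMSC. Treatments: targeted agents with PI3K inhibitors. Dosing: clinically relevant, half-log spacing, 10 microM ceiling without known Cmax. Read-out: cell viability.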

[1] = second compound 0.00316 µM, first compound 0.0316 µM
[2] = second compound 0.00316 µM, first compound 0.1 µM
[3] = second compound 0.00316 µM, first compound 0.316 µM
[4] = second compound 0.00316 µM, first compound 1 µM
[5] = second compound 0.00316 µM, first compound 3.16 µM
[6] = second compound 0.00316 µM, first compound 10 µM
[7] = second compound 0.01 µM, first compound 0.0316 µM
[8] = second compound 0.01 µM, first compound 0.1 µM
[9] = second compound 0.01 µM, first compound 0.316 µM
[10] = second compound 0.01 µM, first compound 1 µM
[11] = second compound 0.01 µM, first compound 3.16 µM
[12] = second compound 0.01 µM, first compound 10 µM
[13] = second compound 0.0316 µM, first compound 0.0316 µM
[14] = second compound 0.0316 µM, first compound 0.1 µM
[15] = second compound 0.0316 µM, first compound 0.316 µM
[16] = second compound 0.0316 µM, first compound 1 µM
[17] = second compound 0.0316 µM, first compound 3.16 µM
[18] = second compound 0.0316 µM, first compound 10 µM
[19] = second compound 0.1 µM, first compound 0.0316 µM
[20] = second compound 0.1 µM, first compound 0.1 µM
[21] = second compound 0.1 µM, first compound 0.316 µM
[22] = second compound 0.1 µM, first compound 1 µM
[23] = second compound 0.1 µM, first compound 3.16 µM
[24] = second compound 0.1 µM, first compound 10 µM
[25] = second compound 0.316 µM, first compound 0.0316 µM
[26] = second compound 0.316 µM, first compound 0.1 µM
[27] = second compound 0.316 µM, first compound 0.316 µM
[28] = second compound 0.316 µM, first compound 1 µM
[29] = second compound 0.316 µM, first compound 3.16 µM
[30] = second compound 0.316 µM, first compound 10 µM
[31] = second compound 1 µM, first compound 0.0316 µM
[32] = second compound 1 µM, first compound 0.1 µM
[33] = second compound 1 µM, first compound 0.316 µM
[34] = second compound 1 µM, first compound 1 µM
[35] = second compound 1 µM, first compound 3.16 µM
[36] = second compound 1 µM, first compound 10 µM
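Further: spheroids exposed to agents for seven days before read-out.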

SMILES: CC1(C)CCC(CN2CCN(c3ccc(C(=O)NS(=O)(=O)c4ccc(NCC5CCOCC5)c([N+](=O)[O-])c4)c(Oc4cnc5[nH]ccc5c4)c3)CC2)=C(c2ccc(Cl)cc2)C1
viability, T/C (compound 0.0316 µM): 105% [middle of 4 runs]
viability, T/C (compound 0.1 µM): 106% and 102% (2×) and 85.6%
viability, T/C (compound 0.316 µM): 107% [middle of 4 runs]
viability, T/C (compound 1 µM): 104% [middle of 4 runs]
viability, T/C (compound 3.16 µM): 94.5% [middle of 4 runs]

IC50 (second compound 0.00316 µM): > 10 µM
IC50 (second compound 0.01 µM): > 10 µM
IC50 (second compound 0.0316 µM): > 10 µM
IC50 (second compound 0.1 µM): > 10 µM
IC50 (second compound 0.316 µM): > 10 µM
IC50 (second compound 1 µM): > 10 µM
SMILES: CC(Cn1ccc(-c2ccc(C#N)c(Cl)c2)n1)NC(=O)c1cc(C(C)O)[nH]n1 (centres undefined) + CC(Nc1ccc2c(c1)OCCn1cc(N3C(=O)OCC3C(F)F)nc1-2)C(N)=O
viability, T/C [1]: 111%
viability, T/C [2]: 99.6%
viability, T/C [3]: 105%
viability, T/C [4]: 101%
viability, T/C [5]: 105%
viability, T/C [6]: 106%
viability, T/C [7]: 113%
viability, T/C [8]: 98.6%
viability, T/C [9]: 102%
viability, T/C [10]: 98.4%
viability, T/C [11]: 101%
viability, T/C [12]: 111%
viability, T/C [13]: 102%
viability, T/C [14]: 109%
viability, T/C [15]: 101%
viability, T/C [16]: 96.2%
viability, T/C [17]: 101%
viability, T/C [18]: 102%
viability, T/C [19]: 98.2%
viability, T/C [20]: 100%
viability, T/C [21]: 103%
viability, T/C [22]: 95.2%
viability, T/C [23]: 109%
viability, T/C [24]: 95%
viability, T/C [25]: 92.6%
viability, T/C [26]: 98%
viability, T/C [27]: 97.7%
viability, T/C [28]: 94.1%
viability, T/C [29]: 104%
viability, T/C [30]: 91.9%
viability, T/C [31]: 87.7%
viability, T/C [32]: 91.6%
viability, T/C [33]: 91.7%
viability, T/C [34]: 86.2%
viability, T/C [35]: 90.4%
viability, T/C [36]: 92.3%

IC50 (second compound 0.00316 µM): 5.72 µM
IC50 (second compound 0.01 µM): 5.95 µM
IC50 (second compound 0.0316 µM): 5.96 µM
IC50 (second compound 0.1 µM): 5.68 µM
IC50 (second compound 0.316 µM): 5.6 µM
IC50 (second compound 1 µM): 5.38 µM
SMILES: CC1(C)CCC(CN2CCN(c3ccc(C(=O)NS(=O)(=O)c4ccc(NCC5CCOCC5)c([N+](=O)[O-])c4)c(Oc4cnc5[nH]ccc5c4)c3)CC2)=C(c2ccc(Cl)cc2)C1 + CC(Nc1ccc2c(c1)OCCn1cc(N3C(=O)OCC3C(F)F)nc1-2)C(N)=O
viability, T/C [1]: 105%
viability, T/C [2]: 105%
viability, T/C [3]: 99.9%
viability, T/C [4]: 103%
viability, T/C [5]: 96.5%
viability, T/C [6]: 6.21%
viability, T/C [7]: 111%
viability, T/C [8]: 98.7%
viability, T/C [9]: 109%
viability, T/C [10]: 104%
viability, T/C [11]: 103%
viability, T/C [12]: 6.45%
viability, T/C [13]: 106%
viability, T/C [14]: 107%
viability, T/C [15]: 106%
viability, T/C [16]: 99.6%
viability, T/C [17]: 99.8%
viability, T/C [18]: 9.42%
viability, T/C [19]: 98.2%
viability, T/C [20]: 104%
viability, T/C [21]: 103%
viability, T/C [22]: 102%
viability, T/C [23]: 95.2%
viability, T/C [24]: 6.43%
viability, T/C [25]: 97.9%
viability, T/C [26]: 92.8%
viability, T/C [27]: 101%
viability, T/C [28]: 85.3%
viability, T/C [29]: 96.3%
viability, T/C [30]: 4.55%
viability, T/C [31]: 86.6%
viability, T/C [32]: 88.1%
viability, T/C [33]: 89.8%
viability, T/C [34]: 90.2%
viability, T/C [35]: 85.2%
viability, T/C [36]: 8.82%
